Reference: patent US20220088016A1, “CANCER TREATMENT USING MULTI-TARGETED KINASE INHIBITOR IN COMBINATION OF PROTEIN KINASE BIOMARKERS” (ZHEJIANG CROWNMAB BIOTECH CO. LTD., priority 2019, published 2022)

Legend:
Assay in all cases: Kinase profiling
Assay type in all cases: binding
Settings in all cases: read-out: % Ctrl @ 1000 nM
KIT (D816V) = KIT (D816V) (Homo sapiens, UniProt P10721, D816V)
PLK1 = PLK1 (Homo sapiens, UniProt P53350)
KIT (D816H) = KIT (D816H) (Homo sapiens, UniProt P10721, D816H)
BLK = BLK (Homo sapiens, UniProt P51451)
FGFR1 = FGFR1 (Homo sapiens, UniProt P11362)
HPK1 = HPK1 (Homo sapiens, UniProt Q92918)
PHKG2 = PHKG2 (Homo sapiens, UniProt P15735)
CDKL2 = CDKL2 (Homo sapiens, UniProt Q92772)
CDKL2, sequence (Q92772 whole entry): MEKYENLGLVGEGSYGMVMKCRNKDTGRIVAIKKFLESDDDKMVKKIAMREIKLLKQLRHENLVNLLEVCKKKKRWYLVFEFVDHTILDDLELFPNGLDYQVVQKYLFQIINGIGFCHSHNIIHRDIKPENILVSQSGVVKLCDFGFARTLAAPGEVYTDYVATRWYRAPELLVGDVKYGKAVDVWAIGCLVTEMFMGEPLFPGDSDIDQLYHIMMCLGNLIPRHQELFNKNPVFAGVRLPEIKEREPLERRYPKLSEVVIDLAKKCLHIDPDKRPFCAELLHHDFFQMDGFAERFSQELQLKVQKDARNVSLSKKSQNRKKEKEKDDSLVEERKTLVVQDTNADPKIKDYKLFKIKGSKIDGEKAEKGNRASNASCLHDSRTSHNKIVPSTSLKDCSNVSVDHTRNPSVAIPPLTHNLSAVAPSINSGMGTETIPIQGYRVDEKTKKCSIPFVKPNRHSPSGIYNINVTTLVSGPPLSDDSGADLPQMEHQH

[1] = target: ABL1 (H396P)-phosphorylated (Homo sapiens, UniProt P00519, H396P)
ULK3 = ULK3 (Homo sapiens, UniProt Q6PHR2)
BUB1 = BUB1 (Homo sapiens, UniProt O43683)
LZK = LZK (Homo sapiens, UniProt O43283)
TIE1 = TIE1 (Homo sapiens, UniProt P35590)
RIOK2 = RIOK2 (Homo sapiens, UniProt Q9BVS4)
IKK-beta = IKK-beta (Homo sapiens, UniProt O14920)
IKK-beta, sequence (O14920 whole entry): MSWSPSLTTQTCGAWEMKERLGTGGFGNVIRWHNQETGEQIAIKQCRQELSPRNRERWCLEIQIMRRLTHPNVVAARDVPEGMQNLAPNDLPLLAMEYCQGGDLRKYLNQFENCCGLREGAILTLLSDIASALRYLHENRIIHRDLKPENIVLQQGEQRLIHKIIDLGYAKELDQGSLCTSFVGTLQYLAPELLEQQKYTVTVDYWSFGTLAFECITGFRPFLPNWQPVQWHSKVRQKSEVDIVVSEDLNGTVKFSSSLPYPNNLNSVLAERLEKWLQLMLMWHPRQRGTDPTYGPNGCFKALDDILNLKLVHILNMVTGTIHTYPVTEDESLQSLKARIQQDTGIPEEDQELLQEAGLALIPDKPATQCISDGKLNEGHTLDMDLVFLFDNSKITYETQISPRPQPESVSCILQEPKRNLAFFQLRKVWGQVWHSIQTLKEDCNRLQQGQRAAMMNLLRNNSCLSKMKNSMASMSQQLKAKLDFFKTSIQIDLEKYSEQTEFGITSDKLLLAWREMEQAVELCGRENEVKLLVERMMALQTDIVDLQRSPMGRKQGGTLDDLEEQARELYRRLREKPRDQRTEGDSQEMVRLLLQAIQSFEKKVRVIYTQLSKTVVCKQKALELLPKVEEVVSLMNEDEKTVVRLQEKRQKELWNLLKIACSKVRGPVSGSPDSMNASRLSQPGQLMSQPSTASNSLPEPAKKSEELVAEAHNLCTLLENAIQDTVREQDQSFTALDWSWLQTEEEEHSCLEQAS

STK39 = STK39 (Homo sapiens, UniProt Q9UEW8)
[2] = target: RSK1 (Kin.Dom.1-N-terminal) (Homo sapiens, UniProt Q15418)
CSK = CSK (Homo sapiens, UniProt P41240)
EPHB4 = EPHB4 (Homo sapiens, UniProt P54760)
BRAF (V600E) = BRAF (V600E) (Homo sapiens, UniProt P15056, V600E)
BRAF (V600E), sequence (P15056 whole entry V600E): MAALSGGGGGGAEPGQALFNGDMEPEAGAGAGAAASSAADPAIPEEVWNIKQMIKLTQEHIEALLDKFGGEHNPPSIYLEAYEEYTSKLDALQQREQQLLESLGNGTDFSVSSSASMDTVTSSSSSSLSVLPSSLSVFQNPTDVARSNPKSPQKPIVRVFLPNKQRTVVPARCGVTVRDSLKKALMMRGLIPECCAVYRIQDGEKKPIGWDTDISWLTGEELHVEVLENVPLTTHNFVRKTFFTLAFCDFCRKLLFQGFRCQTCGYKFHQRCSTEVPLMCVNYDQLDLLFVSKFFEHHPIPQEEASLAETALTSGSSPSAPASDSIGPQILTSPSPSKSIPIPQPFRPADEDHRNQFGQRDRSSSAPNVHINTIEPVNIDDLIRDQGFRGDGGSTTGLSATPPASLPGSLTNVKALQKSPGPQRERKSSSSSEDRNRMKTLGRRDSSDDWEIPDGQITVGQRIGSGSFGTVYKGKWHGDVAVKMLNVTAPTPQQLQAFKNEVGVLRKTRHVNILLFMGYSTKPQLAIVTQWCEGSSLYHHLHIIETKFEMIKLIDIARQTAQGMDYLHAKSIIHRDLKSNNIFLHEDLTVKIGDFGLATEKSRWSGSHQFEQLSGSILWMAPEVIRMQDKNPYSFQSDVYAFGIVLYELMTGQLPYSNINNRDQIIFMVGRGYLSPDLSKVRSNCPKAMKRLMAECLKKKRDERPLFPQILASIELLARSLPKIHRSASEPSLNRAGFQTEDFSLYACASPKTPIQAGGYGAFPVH

YSK1 = YSK1 (Homo sapiens, UniProt O00506)
YSK1, sequence (O00506 whole entry): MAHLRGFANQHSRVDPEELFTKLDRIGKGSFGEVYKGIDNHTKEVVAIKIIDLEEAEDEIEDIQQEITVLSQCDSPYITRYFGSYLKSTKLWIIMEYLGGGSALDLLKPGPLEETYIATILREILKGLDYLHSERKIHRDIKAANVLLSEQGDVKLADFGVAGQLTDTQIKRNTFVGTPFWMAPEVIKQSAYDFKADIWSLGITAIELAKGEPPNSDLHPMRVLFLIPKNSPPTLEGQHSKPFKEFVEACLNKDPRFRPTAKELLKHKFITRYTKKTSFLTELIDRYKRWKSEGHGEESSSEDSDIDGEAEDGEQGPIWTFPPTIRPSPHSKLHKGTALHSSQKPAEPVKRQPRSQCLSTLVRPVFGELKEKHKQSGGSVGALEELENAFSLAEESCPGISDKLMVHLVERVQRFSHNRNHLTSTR

PFTAIRE2 = PFTAIRE2 (Homo sapiens, UniProt Q96Q40)
ACVRL1 = ACVRL1 (Homo sapiens, UniProt P37023)
ACVRL1, sequence (P37023 22-503): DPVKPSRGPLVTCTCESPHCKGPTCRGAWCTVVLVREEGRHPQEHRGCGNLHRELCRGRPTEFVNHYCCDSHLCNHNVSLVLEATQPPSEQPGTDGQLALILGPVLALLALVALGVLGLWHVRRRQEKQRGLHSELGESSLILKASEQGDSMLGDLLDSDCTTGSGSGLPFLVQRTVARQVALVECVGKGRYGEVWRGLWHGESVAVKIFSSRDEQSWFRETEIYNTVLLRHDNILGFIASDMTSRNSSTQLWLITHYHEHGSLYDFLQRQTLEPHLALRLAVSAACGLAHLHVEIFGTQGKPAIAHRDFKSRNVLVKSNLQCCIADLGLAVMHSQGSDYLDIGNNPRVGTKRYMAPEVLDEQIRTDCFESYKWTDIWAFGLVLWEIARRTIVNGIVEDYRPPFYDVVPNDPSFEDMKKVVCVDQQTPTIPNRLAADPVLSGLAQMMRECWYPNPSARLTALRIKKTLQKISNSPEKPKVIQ

PCTK3 = PCTK3 (Homo sapiens, UniProt Q07002)
PCTK3, sequence (Q07002 whole entry): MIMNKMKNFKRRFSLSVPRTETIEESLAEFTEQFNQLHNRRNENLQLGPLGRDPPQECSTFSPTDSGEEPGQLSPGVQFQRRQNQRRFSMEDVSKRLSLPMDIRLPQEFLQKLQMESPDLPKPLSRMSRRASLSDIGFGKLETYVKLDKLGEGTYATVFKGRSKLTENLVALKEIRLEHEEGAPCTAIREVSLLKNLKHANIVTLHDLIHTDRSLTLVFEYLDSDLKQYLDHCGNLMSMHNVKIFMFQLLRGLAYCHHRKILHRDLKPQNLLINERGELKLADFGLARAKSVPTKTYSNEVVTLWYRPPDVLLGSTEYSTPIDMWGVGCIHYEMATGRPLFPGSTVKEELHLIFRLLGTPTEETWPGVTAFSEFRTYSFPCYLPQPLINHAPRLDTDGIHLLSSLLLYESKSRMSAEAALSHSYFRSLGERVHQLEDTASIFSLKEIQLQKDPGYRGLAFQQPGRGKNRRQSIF

[3] = target: ABL1 (M351T)-phosphorylated (Homo sapiens, UniProt P00519, M351T)
AURKB = AURKB (Homo sapiens, UniProt Q96GD4)
AURKB, sequence (Q96GD4 whole entry): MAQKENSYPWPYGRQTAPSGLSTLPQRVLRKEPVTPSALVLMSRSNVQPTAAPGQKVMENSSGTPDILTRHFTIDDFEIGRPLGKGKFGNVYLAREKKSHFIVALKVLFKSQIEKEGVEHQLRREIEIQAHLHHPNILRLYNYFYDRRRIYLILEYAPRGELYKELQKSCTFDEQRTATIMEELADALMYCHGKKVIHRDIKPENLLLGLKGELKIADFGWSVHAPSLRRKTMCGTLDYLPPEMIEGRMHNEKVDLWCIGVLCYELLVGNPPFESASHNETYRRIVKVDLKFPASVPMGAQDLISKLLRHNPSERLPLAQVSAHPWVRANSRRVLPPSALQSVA

ERK4 = ERK4 (Homo sapiens, UniProt P31152)
PDPK1 = PDPK1 (Homo sapiens, UniProt O15530)
PIM2 = PIM2 (Homo sapiens, UniProt Q9P1W9)
PIM2, sequence (Q9P1W9 whole entry): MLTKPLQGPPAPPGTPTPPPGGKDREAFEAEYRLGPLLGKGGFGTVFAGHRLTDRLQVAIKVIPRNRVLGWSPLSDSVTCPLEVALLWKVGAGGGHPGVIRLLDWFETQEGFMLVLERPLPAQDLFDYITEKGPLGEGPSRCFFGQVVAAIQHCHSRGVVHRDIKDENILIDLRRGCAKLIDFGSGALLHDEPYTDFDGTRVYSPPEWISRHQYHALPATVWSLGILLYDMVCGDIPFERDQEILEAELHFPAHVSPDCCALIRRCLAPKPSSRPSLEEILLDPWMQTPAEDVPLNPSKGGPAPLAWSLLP

[4] = target: EGFR (L747-E749del, A750P) (Homo sapiens, UniProt P00533, A750P/DEL747-749)
ROS1 = ROS1 (Homo sapiens, UniProt P08922)
MLK3 = target: T1, MLK3 (Homo sapiens, UniProt Q16584)
T1 construct: T7 phage fusion (stated for most kinases of the panel only); made in house; host or cells: T7 phage in E. coli (BL21-derived) or HEK-293 cells

DYRK2 = DYRK2 (Homo sapiens, UniProt Q92630)
NIM1 = target: T2, NIM1 (Homo sapiens, UniProt Q8IY84)
T2 construct: T7 phage fusion (said for most assays); made in house

CHEK2 = CHEK2 (Homo sapiens, UniProt O96017)
CHEK2, sequence (O96017 whole entry): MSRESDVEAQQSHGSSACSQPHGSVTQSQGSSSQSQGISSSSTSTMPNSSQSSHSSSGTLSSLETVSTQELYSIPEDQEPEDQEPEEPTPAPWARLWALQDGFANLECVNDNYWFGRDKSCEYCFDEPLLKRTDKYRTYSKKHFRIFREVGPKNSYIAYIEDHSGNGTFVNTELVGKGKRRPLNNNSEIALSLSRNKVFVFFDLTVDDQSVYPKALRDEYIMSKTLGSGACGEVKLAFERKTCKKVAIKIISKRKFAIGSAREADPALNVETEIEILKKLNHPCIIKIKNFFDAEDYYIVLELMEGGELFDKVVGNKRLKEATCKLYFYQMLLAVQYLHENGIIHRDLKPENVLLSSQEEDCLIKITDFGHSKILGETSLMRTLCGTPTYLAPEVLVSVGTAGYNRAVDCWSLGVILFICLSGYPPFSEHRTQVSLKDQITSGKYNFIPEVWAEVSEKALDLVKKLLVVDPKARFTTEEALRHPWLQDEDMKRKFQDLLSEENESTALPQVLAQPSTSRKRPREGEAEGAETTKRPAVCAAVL

PIK3CA (C420R) = PIK3CA (C420R) (Homo sapiens, UniProt P42336, C420R)
ASK2 = ASK2 (Homo sapiens, UniProt O95382)
CAMKK2 = CAMKK2 (Homo sapiens, UniProt Q96RR4)
CAMK1D = CAMK1D (Homo sapiens, UniProt Q8IU85)
CAMK1D, sequence (Q8IU85 whole entry): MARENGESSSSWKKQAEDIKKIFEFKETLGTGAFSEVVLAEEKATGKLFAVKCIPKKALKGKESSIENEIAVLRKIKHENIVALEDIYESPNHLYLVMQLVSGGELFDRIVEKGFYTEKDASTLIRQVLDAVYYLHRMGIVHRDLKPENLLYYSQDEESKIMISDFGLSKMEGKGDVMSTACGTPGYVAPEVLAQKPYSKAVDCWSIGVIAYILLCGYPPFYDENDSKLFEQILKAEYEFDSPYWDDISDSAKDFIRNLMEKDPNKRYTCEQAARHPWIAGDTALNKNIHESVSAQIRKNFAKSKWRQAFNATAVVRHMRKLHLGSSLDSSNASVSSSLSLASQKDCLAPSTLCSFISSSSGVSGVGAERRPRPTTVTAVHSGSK

Cc1cc(Oc2cc(NC(=O)C3CC3)ncn2)ccc1NC(=O)Nc1ccc(Cl)c(C(F)(F)F)c1 [CBT-102]
remaining activity at 1 µM (KIT (D816V)): 18%
remaining activity at 1 µM (PLK1): 95%
remaining activity at 1 µM (KIT (D816H)): 37%
remaining activity at 1 µM (BLK): 48%
remaining activity at 1 µM (FGFR1): 61%
remaining activity at 1 µM (HPK1): 23%
remaining activity at 1 µM (PHKG2): 87%
remaining activity at 1 µM (CDKL2): 0.45%
remaining activity at 1 µM [1]: 83%
remaining activity at 1 µM (ULK3): 88%
remaining activity at 1 µM (BUB1): 100%
remaining activity at 1 µM (LZK): 97%
remaining activity at 1 µM (TIE1): 20%
remaining activity at 1 µM (RIOK2): 92%
remaining activity at 1 µM (IKK-beta): 92%
remaining activity at 1 µM (STK39): 100%
remaining activity at 1 µM [2]: 100%
remaining activity at 1 µM (CSK): 29%
remaining activity at 1 µM (EPHB4): 18%
remaining activity at 1 µM (BRAF (V600E)): 1.8%
remaining activity at 1 µM (YSK1): 100%
remaining activity at 1 µM (PFTAIRE2): 60%
remaining activity at 1 µM (ACVRL1): 67%
remaining activity at 1 µM (PCTK3): 84%
remaining activity at 1 µM [3]: 65%
remaining activity at 1 µM (AURKB): 49%
remaining activity at 1 µM (ERK4): 91%
remaining activity at 1 µM (PDPK1): 100%
remaining activity at 1 µM (PIM2): 100%
remaining activity at 1 µM [4]: 80%
remaining activity at 1 µM (ROS1): 63%
remaining activity at 1 µM (MLK3): 92%
remaining activity at 1 µM (DYRK2): 89%
remaining activity at 1 µM (NIM1): 82%
remaining activity at 1 µM (CHEK2): 100%
remaining activity at 1 µM (PIK3CA (C420R)): 100%
remaining activity at 1 µM (ASK2): 94%
remaining activity at 1 µM (CAMKK2): 92%
remaining activity at 1 µM (CAMK1D): 81%
